Results published in patent US20240390390A1, “NITRIC OXIDE RELEASING PROSTAMIDE AS NEUROPROTECTIVE AGENT” (Nicox SA, priority 2021, published 2024).
One block for each compound: values may come before it.

Assays:
[1] = test system: ischemia/reperfusion injury of the optic nerve induced by endothelin-1 (ET-1) in rabbits; assay: Electroretinogram (ERG) in ET-1 ischemia/reperfusion rabbit model; type: in vivo, New Zealand white (NZW) rabbits
Experimental: (§1) This series of experiments were performed to determine the effect of Compound (I) on ocular vascular reactivity i.e. ophthalmic artery resistive index (OA-RI) and, consequently, on retinal function after repeated ocular topical dosing in a well-defined model of ischemia/reperfusion injury of the optic nerve induced by the retrobulbar injection of endothelin-1 (ET-1) in rabbits.
(§2) Adult male New Zealand white (NZW) rabbits weighting 1.5-2.0 kg were used. The animals were kept in individual cages, food and water were provided ad libitum. The ischaemia/reperfusion lesion of the optic nerve was obtained by subtenonian injection twice a week with 500 μL of 250 nM ET-1 (Fluka, Israel) in water using a lacrimal cannula under anesthesia produced by ketamine (20 mg/kg, Lobotor, ACME, 100 mg/ml) and xilazine (5 mg/kg, Sedaxylan 2%, Dechra Veterinary Products S.r.l) intramuscularly. Animals were treated with ET-1 for 6 weeks. Compound (I) 0.1% (1 mg/mL) solution or vehicle were administered as eye drop (30 μL/eye), twice a day (around 10:00 AM and 4:00 PM) starting 2 weeks after ET-1 first dosing until the end of the experiment.
Electroretinogram (ERG). Topical anesthesia was applied using one drop […] oxybuprocaine hydrochloride, 4 mg/ml. The eyes were then dilated by topical application of tropicamide 1% and, when needed, adapted to darkness for at least 2 hours prior to standard ERGs recording in both eyes using contact lens corneal electrodes so to have sufficiently stable and amplified recordings. The ERG signals [(amplitude, microvolts (μV)] were recorded using Retimax (CSO, Florence, Italy) and according to the current International Society for Clinical Electrophysiology (ISCEV) indications; specifically, the dark-adapted 0.01 ERG (rod response), dark-adapted 3.0 ERG (combined rod-cone response) and, light-adapted 3.0 (cone response) were recorded. Flashes intensity varied: • a) from 0.01 photopic cd·s·m^−2 to 0.025 scotopic candela-seconds per meter squared (cd·s·m^−2) with a minimum interval between flashes of 2 s for the dark-adapted 0.01 ERG; • b) from 3.0 photopic cd·s·m^−2 to 7.5 scotopic cd·s·m^−2 with a minimum interval between flashes of 10 s for the dark-adopted 3.0 ERG • c) from 3.0 photopic cd·s·m^−2 to 7.5 scotopic cd·s·m^−2 with a minimum interval between flashes of 0.5 s and a light adaptation strength of 30 cd·s·m^−2 for the light-adopted 3.0 ERG. In all cases ERG recordings lasted 250 ms. […].
Measurements were taken prior ET-1 first dose (baseline, time 0) and then at the end of week-2 (prior to vehicle- or Compound (I) first day-first dose) and at the end of week-6 (36 h after vehicle or Compound (I)-last day-last dose).

[2] = test system: ischemia/reperfusion injury of the optic nerve induced by endothelin-1 (ET-1) in rabbits; assay: Ophthalmic artery resistive index (OA-RI) by ecocolor Doppler in ET-1 ischemia/reperfusion rabbit model; type: in vivo, New Zealand white (NZW) rabbits; design: key: Pourcelot resistive index = (PSV−EDV)/PSV; conditions: for Ophthalmic artery resistive index (OA-RI), Baseline: prior to ET-1 dosing and prior to test item
Experimental: as §1, §2
Ophthalmic Artery Resistive Index (OA-RI) was estimated using an ecocolor Doppler DynaView™ II SSD-1700 (Aloka Holding Europe AG, Milan, Italy) prior to ET-1 treatment (baseline, time 0), and weekly thereafter until the end of the study. From week 2 to week 4, morning dosing with test article or vehicle were omitted on the day of hemodynamic measurements in order to have virtually drug-free conditions (16-18 h post last dose) at the time of testing. Pourcelot resistive index for ophthalmic artery (OA-RI) was calculated as following: (PSV−EDV)/PSV where PSV and EDV refer to Peak Systolic Velocity and End Diastolic Velocity, respectively.

[3] = test system: patients with open-angle glaucoma or ocular hypertension; assay: Phase 2 clinical trial, reduction of elevated intraocular pressure (IOP); type: in vivo, human
Experimental: The efficacy of Compound (I) for the reduction of elevated intraocular pressure (IOP) was evaluated in a Phase 2 clinical trial conducted in 433 patients with open-angle glaucoma or ocular hypertension, treated once daily for 27 days.

[4] = test system: subjects with open-angle glaucoma or ocular hypertension, non-study eyes with normal IOP; conditions: 0.024% once daily in the evening up to 12 months, cited from earlier work
[5] = 0.1% solution, 30 μL/eye bid, 36 h after last dose, ± S.E.M
[6] = after 2 weeks ET-1, prior to first dose of test item, ± S.E.M
[7] = prior to ET-1 and test item, ± S.E.M
[8] = 0.1% solution, 30 μL/eye eye drop bid
[9] = 0.1% solution, 30 μL/eye eye drop bid, listed as Cpd (1)

Conjunctival hyperemia, treated patients ([3]; Phase 2, highest dose tested): 16.8%
SMILES: CCNC(=O)CCC/C=C\C[C@@H]1[C@@H](/C=C/[C@H](CCc2ccccc2)OC(=O)CCCCCO[N+](=O)[O-])[C@H](O)C[C@@H]1O [Compound (I), Hexanoic acid, 6-(nitrooxy)-, (1S,2E)-3-[(1R,2R,3S,5R)-2-[(2Z)-7-(ethylamino)-7-oxo-2-hepten-1-yl]-3,5-dihydroxycyclopentyl]-1-(2-phenylethyl)-2-propen-1-yl ester]
ERG Amplitude, Dark adapted 0.01 (Rod response), ET-1 (6 weeks) + Test items (4 weeks daily bid) [1, 5]: 44.3 ± 4.5 μV
ERG Amplitude, Dark adapted 3.0 (Rod/cone response), ET-1 (6 weeks) + Test items (4 weeks daily bid) [1, 5]: 122.8 ± 11.4 μV
ERG Amplitude, Light adapted 3.0 (cone response), ET-1 (6 weeks) + Test items (4 weeks daily bid) [1, 5]: 64.2 ± 6.8 μV
ERG Amplitude, Dark adapted 0.01 (Rod response), ET-1 (2 weeks) [1, 6]: 37.6 ± 6.2 μV
ERG Amplitude, Dark adapted 3.0 (Rod/cone response), ET-1 (2 weeks) [1, 6]: 96.6 ± 9.4 μV
ERG Amplitude, Light adapted 3.0 (cone response), ET-1 (2 weeks) [1, 6]: 60.2 ± 4.3 μV
Impairment in the ERG wave amplitude versus vehicle ([1]; eyes treated for 4 weeks, dark-adapted 0.01, dark-adapted 3.0 and Light-adapted 3.0): significantly (p<0.05) less impairment
ERG Amplitude, Dark adapted 0.01 (Rod response), Baseline [1, 7]: 42.3 ± 6.9 μV
ERG Amplitude, Dark adapted 3.0 (Rod/cone response), Baseline [1, 7]: 118.0 ± 10.3 μV
ERG Amplitude, Light adapted 3.0 (cone response), Baseline [1, 7]: 67.6 ± 6.4 μV
Ophthalmic artery resistive index (OA-RI), ET-1 (3-weeks) + Test items (1 week daily bid) [2, 8]: 0.35 ± 0.03
Ophthalmic artery resistive index (OA-RI), ET-1 (4-weeks) + Test items (2 weeks daily bid) [2, 8]: 0.32 ± 0.03
Ophthalmic artery resistive index (OA-RI), ET-1 (5 weeks) + Test items (3 weeks daily bid) [2, 8]: 0.32±0.03
Ophthalmic artery resistive index (OA-RI), ET-1 (6 weeks) + Test items (4 weeks daily bid) [2, 8]: 0.33±0.02
Ophthalmic artery resistive index (OA-RI), ET-1 (5 weeks) + Test items (3 weeks daily bid) [2, 9]: 0.32 ± 0.03
Ophthalmic artery resistive index (OA-RI), ET-1 (6 weeks) + Test items (4 weeks daily bid) [2, 9]: 0.33 ± 0.02
Ophthalmic artery resistive index (OA-RI), ET-1 (2 weeks) ([2]; after 2 weeks ET-1, prior to first dose of test item): 0.36 ± 0.03
Ophthalmic artery resistive index (OA-RI), Baseline [2]: 0.30±0.02
Ophthalmic artery resistive index (OA-RI), Baseline ([2]; listed as Cpd (1)): 0.30 ± 0.02
Tolerability ([3]; Phase 2, once daily for 27 days): well tolerated

SMILES: O=C(CCC/C=C\C[C@@H]1[C@@H](CC[C@@H](O)CCc2ccccc2)[C@H](O)C[C@@H]1O)OCCCCO[N+](=O)[O-] [Latanoprostene Bunod]
IOP lowering from baseline, Japanese population ([4]; fellow eyes with baseline IOP ≤19 mmHg): 3.2-3.9 mmHg
IOP lowering from baseline, Caucasian population ([4]; fellow eyes with baseline IOP ≤21 mmHg): 4.2-4.9 mmHg
